Measured values from patent publication US4576957A, “N-(Substituted phenyl)-N'-[(1H-imidazol-1-yl) and (1H-1,2,4-triazol-1-yl)alkyl]ureas” (American Cyanamid Company, priority 1984, dated 1986).

What was measured:
[1] = tested on: spontaneously hypertensive rats; assay: Hypotensive Activity in Spontaneously Hypertensive Rats; type: in vivo; details: gavage, 100 mg./kg. or less, two doses 24 hours apart; measured 28 hours after initial dose; initial average 170±1.5 mm
Procedure: The novel compounds of the present invention are active hypotensive agents and were tested for hypotensive activity by the method of P. S. Chan and D. Poorvin, Clinical and Experimental Hypertension, 1 (6), 817-830 (1979). Male, 16 week old, spontaneously hypertensive rats of the Okamoto strain, from Taconic Farms, Germantown, N.Y., having an average mean arterial blood pressure of 170±1.5 mm of mercury are used in the test. One to 3 rats are used per test compound. A rat is dosed by gavage with a test compound, suspended in 2% pre-boiled starch at a concentration of 50 mg./ml., at a dose of 100 mg./kg. of body weight or less, with 0.9% sodium chloride loading at a dose of 25 ml./kg. of body weight. A second identical dose of the test compound, without sodium chloride loading is given 24 hours later. At 28 hours after the initial dose the mean arterial blood pressure is measured by the method of Chan and Poorvin vide supra. The procedure is repeated in a second and third rat when necessary.

[2] = target: T1, thromboxane synthetase enzyme (Rattus norvegicus, UniProt P49430); assay: Thromboxane Synthetase Enzyme Inhibition (TXB2 formation by washed SHR platelets, RIA); type: cell-based, Okamoto-Aoki spontaneously hypertensive rats (SHR); details: 10 min; Dose 10^-4 (unit inferred); SHR platelet suspension, 10 minutes at 37° C.
T1 construct: The platelets were isolated by centrifuging the PRP for 10 minutes at 1060xg; endogenous in cells; host or cells: washed platelets from arterial blood of Okamoto-Aoki spontaneously hypertensive rats (Taconic Farms, Germantown, NY)
T1 sequence (P49430 1-533): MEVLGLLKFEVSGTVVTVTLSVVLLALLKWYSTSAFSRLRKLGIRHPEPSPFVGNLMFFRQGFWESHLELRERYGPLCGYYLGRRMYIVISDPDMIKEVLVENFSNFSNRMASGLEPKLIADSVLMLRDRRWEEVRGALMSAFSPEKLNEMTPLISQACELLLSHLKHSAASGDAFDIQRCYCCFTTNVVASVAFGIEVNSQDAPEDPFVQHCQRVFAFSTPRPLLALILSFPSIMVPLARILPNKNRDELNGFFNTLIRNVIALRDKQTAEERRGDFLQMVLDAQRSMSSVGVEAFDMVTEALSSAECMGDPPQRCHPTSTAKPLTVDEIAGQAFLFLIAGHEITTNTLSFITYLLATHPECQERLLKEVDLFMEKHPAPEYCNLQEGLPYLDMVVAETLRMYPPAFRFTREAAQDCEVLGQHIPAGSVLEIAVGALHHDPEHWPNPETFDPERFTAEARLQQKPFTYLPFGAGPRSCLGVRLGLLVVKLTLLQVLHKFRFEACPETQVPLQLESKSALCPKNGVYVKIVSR
Procedure: Under urethan anesthesia, […] of arterial blood was collected in one ml. of 3.2% sodium citrate in a polystyrene tube from Okamoto-Aoki spontaneously hypertensive rats (SHR) (Taconic Farms, Germantown, NY) between 19 and 24 weeks in age. The blood was diluted with 3 ml. cold saline and centrifuged at room temperature for 15 minutes at 460xg. The platelet rich plasma (PRP) was separated. The platelets were isolated by centrifuging the PRP for 10 minutes at 1060xg and were washed in 4 ml. of cold oxygenated Krebs phosphate buffer, pH 7.4. The chilled platelets recovered from centrifuging at 800xg for 10 minutes were resuspended in oxygenated Krebs phosphate buffer and diluted to contain 4.5-6.0×10^4 platelets/μl.
The inhibition of thromboxane (TX) formation was studied by determining the concentration of thromboxane B2 (TXB2), the stable hydrolysis product of TXA2. Assay samples, prepared on ice, contained 200 μl platelet suspension, 50 μl saline and 50 μl saline and 50 μl vehicle or drug under study. The samples were incubated for 10 minutes at 37° C. in a metabolic shaker. The reaction was terminated by immersing the tubes in an ice bath and adding 50 μl of 0.5M citric acid. The samples were centrifuged for 10 minutes in a refrigerated centrifuge and the supernatants thus obtained were decanted and stored at -20° C. The TXB2 content for each sample was determined by a direct radioimmunoassay (RIA) utilizing a TXB2 specific RIA kit purchased from New England Nuclear, Boston, MA and expressed as pg TXB2 formed minute^-1 sample^-1, from which the percent inhibition of TXB2 formation was calculated.

[3] = tested on: ischemic myocardium in canines; details: cited from earlier work
[4] = tested on: coronary arteries of guinea pigs; details: cited from earlier work
[5] = tested on: coronary arteries of rabbits; details: cited from earlier work

Structure (SMILES)	inhibition at 100 µM [2] [%]	Average MABP [1] [mm Hg]	other results
O=C(NCCCCCn1ccnc1)Nc1ccc(Cl)cc1	92	153	
O=C(NCCCCn1ccnc1)Nc1ccccc1Cl [N-(2-Chlorophenyl)-N'-[4-(-1H-imidazol-1-yl)butyl]urea]		97	
O=C(NCCCn1cncn1)Nc1ccc(Cl)cc1 [N-(4-Chlorophenyl)-N'-[3-(1H-1,2,4 triazol-1-yl)propyl]urea]	93	145	
O=C(NCCCn1ccnc1)Nc1ccc(Cl)cc1 [N-(4-Chlorophenyl)-N'-[3-(1H-imidazol-1-yl)propyl]urea]	92	122	
O=C(NCCCn1cncn1)Nc1ccccc1Br [N--(2-bromophenyl)-N'--[3-(1H--1,2,4-triazol-1-yl)propyl]-urea]	85	130	
O=C(NCCCn1ccnc1)Nc1ccccc1Br [N--(2-bromophenyl)-N'--[3-(1H--imidazole-1-yl)propyl]-urea]	95	113	
O=C(NCCCCn1ccnc1)Nc1ccccc1Br [N--(2-bromophenyl)-N'--[4-(1H--imidazol-1-yl)-butyl]-urea]		98	
O=C(NCCCn1cncn1)Nc1ccccc1Cl [N--(2-chlorophenyl)-N'--[3-(1H--1,2,4-triazol-1-yl)propyl]-urea]	86	142	
O=C(NCCCn1ccnc1)Nc1ccccc1Cl [N--(2-chlorophenyl)-N'--[3-(1H--imidazole-1-yl)propyl]-urea]	94	123	
O=C(NCCCn1cncn1)Nc1ccccc1F [N--(2-fluorophenyl)-N'--[3-(1H--1,2,4-triazol-1-yl)propyl]-urea]	70	149	
O=C(NCCCn1ccnc1)Nc1ccccc1F [N--(2-fluorophenyl)-N'--[3-(1H--imidazole-1-yl)propyl]-urea]	99	135	
O=C(NCCCn1cncn1)Nc1ccc(Cl)c(Cl)c1 [N--(3,4-dichlorophenyl)-N'--[3-(1H--1,2,4-triazol-1-yl)-propyl]urea]		155	
O=C(NCCCn1ccnc1)Nc1ccc(Cl)c(Cl)c1 [N--(3,4-dichlorophenyl)-N'--[3-(1H--imidazole-1-yl)propyl]-urea]	95	146	
O=C(NCCCn1ccnc1)Nc1cccc(Cl)c1 [N--(3-chlorophenyl)-N'--[3-(1H--imidazole-1-yl)propyl]-urea]	100	124	
O=C(NCCCn1cncn1)Nc1cccc(Cl)c1 [N--(3-chlorophenyl)-N--[3-(1H--1,2,4-triazol-1-yl)propy]-urea]	99	149	
O=C(NCCCn1cncn1)Nc1ccc(Br)cc1 [N--(4-bromophenyl)-N'--[3-(1H--1,2,4-triazol-1-yl)propyl]urea]	86		
O=C(NCCCn1ccnc1)Nc1ccc(Br)cc1 [N--(4-bromophenyl)-N'--[3-(1H--imidazole-1-yl)propyl]-urea]	95	145	
O=C(NCCCn1cncn1)Nc1ccccc1 [N--phenyl-N'--[3-(1H--1,2,4-triazol-1-yl)propyl]urea]		151	
CCCCC[C@H](O)/C=C/[C@@H]1[C@H]2C/C(=C/CCCC(=O)O)O[C@H]2C[C@H]1O [PGI2, Prostacyclin]			effect on ischemic myocardium [3]: beneficial effects
CCCCC[C@H](O)/C=C/[C@H]1O[C@H]2C[C@H](O2)[C@@H]1C/C=C\CCCC(=O)O [TXA2, thromboxane A2]			effect of injection into coronary arteries [4]: causes myocardial ischemia and subendocardial necrosis; effect of injection into coronary arteries [5]: causes myocardial ischemia and subendocardial necrosis

More lines, main results first:

inhibition at 100 µM [2] [%]	Structure (SMILES)	Average MABP [1] [mm Hg]	other results
86	O=C(NCCCn1ccnc1-c1ccccc1)Nc1ccc(Cl)cc1 [N--(4-chlorophenyl)-N'--[3-(2-phenyl-1H--imidazol-1-yl)-propyl]urea]		
92	Cc1cn(CCCNC(=O)Nc2ccc(Cl)cc2)cn1 [N--(4-chlorophenyl)-N'--[3-(4-methyl-1H--imidazol-1-yl)-propyl]urea]	138	
95	O=C(NCCCCn1ccnc1)Nc1ccc(Cl)cc1 [N--(4-chlorophenyl)-N'--[4-(1H--imidazol-1-yl)butyl]urea]	131	
100	Cc1cn(CCCCNC(=O)Nc2ccc(Cl)cc2)cn1 [N--(4-chlorophenyl)-N'--[4-(4-methyl-1H--imidazol-1-yl)-butyl]urea]		
97	O=C(NCCCn1cncn1)Nc1ccc(F)cc1 [N--(4-fluorophenyl)-N'--[3-(1H--1,2,4-triazol-1-yl)propyl]urea]		
100	O=C(NCCCn1ccnc1)Nc1ccc(F)cc1 [N--(4-fluorophenyl)-N'--[3-(1H--imidazol-l-yl)propyl]-urea]	134	
71	COc1ccc(NC(=O)NCCCn2cncn2)cc1 [N--(4-methoxyphenyl)-N'--[3-(1H--1,2,4-triazol-1-yl)-propyl]urea]		
94	COc1ccc(NC(=O)NCCCn2ccnc2)cc1 [N--[3-(1H--imidazol-1-yl)propyl]-N'--(4-methoxyphenyl)urea]		
97	O=C(NCCCn1ccnc1)Nc1ccccc1 [N--[3-(1H--imidazol-1-yl)propyl]-N'--phenylurea]	141	
98	Cc1ccc(NC(=O)NCCCn2ccnc2)cc1 [N--[3-(1H--imidazole-1-yl)-propyl]-N'--(4-methylphenyl)-urea]		
99	O=C(NCCCn1cncn1)Nc1cccc(C(F)(F)F)c1 [N-[3-(1H-1,2,4-triazol-1-yl)propyl]-N'-[3-(trifluoromethyl)phenyl]urea]	143	
100	O=C(NCCCn1ccnc1)Nc1cccc(C(F)(F)F)c1 [N-[3-(1H-Imidazol-1-yl)propyl]-N'-[3-(trifluoromethyl)phenyl]urea]		
